We go through 1 molecule from publication PMC6407917, “Identification of GSK3186899/DDD853651 as a Preclinical Development Candidate for the Treatment of Visceral Leishmaniasis” (Journal of Medicinal Chemistry, 2018).

Targets include BRSK2 (Homo sapiens, UniProt Q8IWQ3); MAST3 (Homo sapiens, UniProt O60307); EPHA5 (Homo sapiens, UniProt P54756); MAPK11 (Homo sapiens, UniProt Q15759); TYRO3 (Homo sapiens, UniProt Q06418); CDC7 (Homo sapiens, UniProt O00311); EPHA4 (Homo sapiens, UniProt P54764); MAP2K5 (Homo sapiens, UniProt Q13163); SERPINB2 (Homo sapiens, UniProt P05120); EIF2AK4 (Homo sapiens, UniProt Q9P2K8); CAMK2G (Homo sapiens, UniProt Q13555); PIK3R4 (Homo sapiens, UniProt Q99570); STK38 (Homo sapiens, UniProt Q15208); PTK2B (Homo sapiens, UniProt Q14289); YWHAZ (Homo sapiens, UniProt P63104); MAPKAPK5 (Homo sapiens, UniProt Q8IW41); MAP3K1 (Homo sapiens, UniProt Q13233); MAP3K7 (Homo sapiens, UniProt O43318); CAMK2D (Homo sapiens, UniProt Q13557); AZI2 (Homo sapiens, UniProt Q9H6S1).

Holding throughout (assay): biochemical
Set-up in all cases: species or system HEK293/K-562/placenta mixed human extract; Kinobeads chemoproteomic competition binding, quantified by TMT LC-MS/MS, dose response up to 20 uM

Each structure is given as a SMILES string.

Chain of CDC7 (O00311 whole entry): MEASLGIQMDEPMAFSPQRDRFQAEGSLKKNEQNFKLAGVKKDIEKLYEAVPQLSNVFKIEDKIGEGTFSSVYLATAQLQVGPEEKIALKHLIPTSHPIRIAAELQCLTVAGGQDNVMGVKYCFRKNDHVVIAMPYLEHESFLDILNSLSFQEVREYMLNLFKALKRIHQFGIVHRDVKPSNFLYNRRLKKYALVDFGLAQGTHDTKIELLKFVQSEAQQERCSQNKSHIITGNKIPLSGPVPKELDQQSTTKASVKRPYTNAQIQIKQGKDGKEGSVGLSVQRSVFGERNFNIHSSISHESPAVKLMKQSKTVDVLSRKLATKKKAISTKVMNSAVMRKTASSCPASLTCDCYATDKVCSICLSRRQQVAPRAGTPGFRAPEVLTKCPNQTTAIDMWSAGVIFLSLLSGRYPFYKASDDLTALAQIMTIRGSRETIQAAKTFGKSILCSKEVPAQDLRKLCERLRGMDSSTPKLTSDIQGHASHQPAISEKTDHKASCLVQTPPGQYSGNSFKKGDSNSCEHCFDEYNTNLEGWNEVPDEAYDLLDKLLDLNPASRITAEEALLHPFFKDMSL
Chain of MAP3K7 (O43318 whole entry): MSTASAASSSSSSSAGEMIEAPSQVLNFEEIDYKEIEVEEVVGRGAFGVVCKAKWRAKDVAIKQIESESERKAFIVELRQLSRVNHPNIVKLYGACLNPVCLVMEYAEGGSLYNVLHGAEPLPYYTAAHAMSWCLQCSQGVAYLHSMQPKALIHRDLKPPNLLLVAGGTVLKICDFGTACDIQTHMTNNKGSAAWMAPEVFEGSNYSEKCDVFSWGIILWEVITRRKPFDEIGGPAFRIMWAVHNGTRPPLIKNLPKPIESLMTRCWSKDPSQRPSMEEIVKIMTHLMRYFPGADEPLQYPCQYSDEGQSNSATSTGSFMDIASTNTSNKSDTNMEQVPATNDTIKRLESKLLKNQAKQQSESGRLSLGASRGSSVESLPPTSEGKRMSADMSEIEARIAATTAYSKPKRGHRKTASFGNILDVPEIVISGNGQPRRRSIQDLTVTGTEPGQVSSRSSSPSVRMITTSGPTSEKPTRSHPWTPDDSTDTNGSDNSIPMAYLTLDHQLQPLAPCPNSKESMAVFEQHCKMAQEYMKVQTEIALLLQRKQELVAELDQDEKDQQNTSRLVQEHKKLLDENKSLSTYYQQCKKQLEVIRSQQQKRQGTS
Chain of PIK3R4 (Q99570 whole entry): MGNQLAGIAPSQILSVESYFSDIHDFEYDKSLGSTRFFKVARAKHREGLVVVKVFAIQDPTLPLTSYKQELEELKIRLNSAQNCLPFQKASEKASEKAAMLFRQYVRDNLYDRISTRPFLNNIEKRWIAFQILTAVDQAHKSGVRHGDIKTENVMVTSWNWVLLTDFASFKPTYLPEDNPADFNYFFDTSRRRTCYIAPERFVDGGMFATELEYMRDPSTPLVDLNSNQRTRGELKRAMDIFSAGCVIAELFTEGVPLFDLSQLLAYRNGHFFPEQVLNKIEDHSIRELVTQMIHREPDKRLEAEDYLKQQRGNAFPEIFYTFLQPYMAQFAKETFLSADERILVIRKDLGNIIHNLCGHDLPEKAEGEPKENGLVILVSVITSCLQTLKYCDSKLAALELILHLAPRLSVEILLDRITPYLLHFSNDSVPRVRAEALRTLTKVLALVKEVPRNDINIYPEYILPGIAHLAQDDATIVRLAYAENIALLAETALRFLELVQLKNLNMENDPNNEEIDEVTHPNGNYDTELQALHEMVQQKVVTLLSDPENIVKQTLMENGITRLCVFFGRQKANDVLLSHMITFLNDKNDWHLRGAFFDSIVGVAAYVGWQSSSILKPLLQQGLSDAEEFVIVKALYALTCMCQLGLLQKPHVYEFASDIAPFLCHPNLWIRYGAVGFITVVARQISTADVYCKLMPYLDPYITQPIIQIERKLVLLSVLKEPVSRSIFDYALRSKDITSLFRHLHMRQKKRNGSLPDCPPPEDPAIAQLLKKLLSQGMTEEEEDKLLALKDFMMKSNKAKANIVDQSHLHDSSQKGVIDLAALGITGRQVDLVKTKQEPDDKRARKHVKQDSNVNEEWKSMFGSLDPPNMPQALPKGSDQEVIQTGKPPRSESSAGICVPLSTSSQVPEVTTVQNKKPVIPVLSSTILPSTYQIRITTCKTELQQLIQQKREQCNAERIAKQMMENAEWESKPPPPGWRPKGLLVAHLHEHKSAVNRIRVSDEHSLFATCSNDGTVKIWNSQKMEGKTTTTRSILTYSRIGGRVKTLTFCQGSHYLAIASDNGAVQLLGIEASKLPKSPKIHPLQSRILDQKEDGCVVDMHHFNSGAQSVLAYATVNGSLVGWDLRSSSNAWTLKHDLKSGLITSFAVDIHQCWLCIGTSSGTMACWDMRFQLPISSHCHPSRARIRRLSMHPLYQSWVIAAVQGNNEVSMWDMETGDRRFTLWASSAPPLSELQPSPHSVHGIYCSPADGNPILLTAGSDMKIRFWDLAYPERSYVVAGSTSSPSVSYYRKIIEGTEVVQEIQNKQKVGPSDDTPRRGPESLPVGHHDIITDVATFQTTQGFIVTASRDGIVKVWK
Chain of TYRO3 (Q06418 whole entry): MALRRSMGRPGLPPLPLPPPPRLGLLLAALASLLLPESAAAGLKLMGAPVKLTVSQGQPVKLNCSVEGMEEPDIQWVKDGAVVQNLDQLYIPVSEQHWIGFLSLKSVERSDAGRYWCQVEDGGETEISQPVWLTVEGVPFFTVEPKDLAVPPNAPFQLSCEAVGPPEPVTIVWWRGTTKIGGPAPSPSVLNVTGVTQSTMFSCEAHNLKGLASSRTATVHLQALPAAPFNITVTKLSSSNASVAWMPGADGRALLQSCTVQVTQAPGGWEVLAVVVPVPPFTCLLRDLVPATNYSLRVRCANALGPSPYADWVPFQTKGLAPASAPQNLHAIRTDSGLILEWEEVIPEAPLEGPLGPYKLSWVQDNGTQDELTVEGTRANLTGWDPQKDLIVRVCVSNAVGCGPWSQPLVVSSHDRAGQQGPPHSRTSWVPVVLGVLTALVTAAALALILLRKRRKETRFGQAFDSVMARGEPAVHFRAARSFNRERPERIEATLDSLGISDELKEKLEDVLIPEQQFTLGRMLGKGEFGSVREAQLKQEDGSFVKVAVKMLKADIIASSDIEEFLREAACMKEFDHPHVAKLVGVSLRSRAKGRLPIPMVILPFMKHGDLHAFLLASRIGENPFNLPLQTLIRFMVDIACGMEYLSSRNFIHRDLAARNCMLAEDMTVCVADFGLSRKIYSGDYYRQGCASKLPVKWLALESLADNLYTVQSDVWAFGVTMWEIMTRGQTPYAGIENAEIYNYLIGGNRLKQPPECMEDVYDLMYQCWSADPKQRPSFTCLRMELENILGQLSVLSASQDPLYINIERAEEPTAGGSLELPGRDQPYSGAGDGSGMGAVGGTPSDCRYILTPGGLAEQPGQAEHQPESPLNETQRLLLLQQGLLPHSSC
Chain of EIF2AK4 (Q9P2K8 whole entry): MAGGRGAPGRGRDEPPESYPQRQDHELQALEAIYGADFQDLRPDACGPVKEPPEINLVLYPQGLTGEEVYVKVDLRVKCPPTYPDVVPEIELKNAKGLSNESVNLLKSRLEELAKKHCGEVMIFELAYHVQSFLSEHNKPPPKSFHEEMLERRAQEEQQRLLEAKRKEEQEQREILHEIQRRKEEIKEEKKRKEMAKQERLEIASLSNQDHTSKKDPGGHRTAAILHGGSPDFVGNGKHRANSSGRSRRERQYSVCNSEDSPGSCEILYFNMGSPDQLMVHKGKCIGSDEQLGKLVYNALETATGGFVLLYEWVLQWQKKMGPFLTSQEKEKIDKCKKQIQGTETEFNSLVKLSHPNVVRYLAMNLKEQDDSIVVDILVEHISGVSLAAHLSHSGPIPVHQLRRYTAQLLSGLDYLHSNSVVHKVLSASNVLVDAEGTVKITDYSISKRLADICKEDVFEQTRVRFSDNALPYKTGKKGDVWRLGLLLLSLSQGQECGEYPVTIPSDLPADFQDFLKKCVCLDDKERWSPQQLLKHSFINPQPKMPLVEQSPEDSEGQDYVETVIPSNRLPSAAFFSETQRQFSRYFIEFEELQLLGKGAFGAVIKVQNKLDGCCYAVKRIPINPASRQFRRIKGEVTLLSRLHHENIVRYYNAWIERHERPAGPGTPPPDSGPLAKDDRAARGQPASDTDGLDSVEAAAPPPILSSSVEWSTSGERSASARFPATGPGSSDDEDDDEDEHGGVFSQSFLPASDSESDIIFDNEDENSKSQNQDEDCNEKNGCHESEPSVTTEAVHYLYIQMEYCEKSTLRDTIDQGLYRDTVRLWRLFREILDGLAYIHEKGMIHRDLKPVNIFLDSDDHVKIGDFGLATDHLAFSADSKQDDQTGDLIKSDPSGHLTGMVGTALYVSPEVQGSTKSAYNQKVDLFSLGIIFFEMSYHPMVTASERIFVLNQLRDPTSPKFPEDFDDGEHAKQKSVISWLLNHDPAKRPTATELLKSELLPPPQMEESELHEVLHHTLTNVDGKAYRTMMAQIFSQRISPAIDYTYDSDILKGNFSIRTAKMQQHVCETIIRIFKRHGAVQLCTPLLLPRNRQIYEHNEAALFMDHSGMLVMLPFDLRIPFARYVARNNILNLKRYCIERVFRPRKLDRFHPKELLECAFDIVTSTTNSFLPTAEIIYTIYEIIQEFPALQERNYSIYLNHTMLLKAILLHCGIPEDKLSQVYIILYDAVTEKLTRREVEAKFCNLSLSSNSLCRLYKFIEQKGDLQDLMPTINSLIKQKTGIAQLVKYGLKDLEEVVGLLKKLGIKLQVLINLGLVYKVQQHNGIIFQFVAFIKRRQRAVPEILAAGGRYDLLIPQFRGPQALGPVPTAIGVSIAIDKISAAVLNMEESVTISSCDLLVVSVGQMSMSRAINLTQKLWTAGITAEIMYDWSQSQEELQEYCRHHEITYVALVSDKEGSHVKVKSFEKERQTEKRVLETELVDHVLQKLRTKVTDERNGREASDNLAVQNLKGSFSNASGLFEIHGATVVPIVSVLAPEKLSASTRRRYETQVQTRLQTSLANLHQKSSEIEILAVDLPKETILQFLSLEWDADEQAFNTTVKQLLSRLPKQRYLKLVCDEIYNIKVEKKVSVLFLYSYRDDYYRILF

For `COc1ccccc1-c1n[nH]c2nc(N[C@H]3CC[C@H](NS(=O)(=O)CCC(F)(F)F)CC3)nc(OC)c12` [compound 31, 3,3,3-Trifluoro-N-(trans-4-((4-methoxy-3-(2-methoxyphenyl)-1H-pyrazolo[3,4-d]pyrimidin-6-yl)amino)cyclohexyl)propane-1-sulfonamide], the IC50 at BRSK2, at MAST3, on EPHA5, at MAPK11, on TYRO3 and at CDC7 was at least 20 µM each time. Also, the IC50 on EPHA4, at MAP2K5, at SERPINB2, at EIF2AK4, on CAMK2G and on PIK3R4 was at least 20 µM each time. The IC50 at STK38 was at least 20 µM; on PTK2B, at least 20 µM; on YWHAZ, at least 20 µM; at MAPKAPK5, 3 µM; on MAP3K1, at least 20 µM; on MAP3K7 it was at least 20 µM. Moreover, the IC50 at CAMK2D and at AZI2 was at least 20 µM each time.

The IC50 is the concentration needed to halve the response being measured.
